Laboratory results taken from article PMC6222544, “Fragment-Based Lead Generation of 5-Phenyl-1H-pyrazole-3-carboxamide Derivatives as Leads for Potent Factor Xia Inhibitors” (Molecules : A Journal of Synthetic Chemistry and Natural …, 2018).
Where two headings read alike, the source gives them in different places.

Tests used:
human FXIa = target: T1, human FXIa (Homo sapiens, UniProt P03951); assay: Inhibition of FXIa in vitro (chromogenic substrate assay); format: biochemical
T1 construct: purchased Haematologic Technologies, Essex Junction, VT, USA
Experimental: The negative controlwas composed of the same mixed solutions except replacing test compound with DMSO. […] The IC50 was calculated by IBM SPSS Statistics 22.0 (IBM Inc., North Castle, NY, USA) and the Probit function in it. IC50 values were converted to Ki values by the followingrelationship:Ki = IC50/(1 + [S]/Km)

rabbit plasma = assay: aPTT in vitro coagulation assay; format: biochemical; details: incubated 3 min at 37 °C
Experimental: A commercially available automatic Coagulation analyzer (Steellex Science Instrument Co., Ltd., Beijing, China) was employed to measure aPTT. The clotting times were also measured using the instrument itself, in accordance with the manufacturer’s instructions. Increasing concentrations of inhibitor or solvent were added to rabbit (Beijing Longan Experimental Animal Breeding Center, SCXK(Jing)2016-0006, Beijing, China) plasma and incubated for 3 min at 37 °C. APTT was determined by automatic Coagulation analyzer.

FXIa = details: representative FXIa inhibitors, Figure 1; cited from earlier work
[1] = human FXIa, chromogenic substrate BIOPHEN CS-21(66), 37 °C, pH 7.4, Ki = IC50/(1 + [S]/Km), read-out: Ki
[2] = Table 1 values, read-out: FXIa inhibitory potency (Ki)

T1 sequence (P03951 388-625 limits assumed): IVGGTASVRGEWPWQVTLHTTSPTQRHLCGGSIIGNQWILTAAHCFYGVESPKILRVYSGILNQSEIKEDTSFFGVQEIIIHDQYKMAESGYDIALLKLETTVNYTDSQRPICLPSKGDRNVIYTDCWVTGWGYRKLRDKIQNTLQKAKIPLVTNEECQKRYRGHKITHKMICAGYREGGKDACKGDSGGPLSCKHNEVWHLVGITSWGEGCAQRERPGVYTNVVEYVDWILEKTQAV
T1 sequence (P03951 19-387 partner limits assumed): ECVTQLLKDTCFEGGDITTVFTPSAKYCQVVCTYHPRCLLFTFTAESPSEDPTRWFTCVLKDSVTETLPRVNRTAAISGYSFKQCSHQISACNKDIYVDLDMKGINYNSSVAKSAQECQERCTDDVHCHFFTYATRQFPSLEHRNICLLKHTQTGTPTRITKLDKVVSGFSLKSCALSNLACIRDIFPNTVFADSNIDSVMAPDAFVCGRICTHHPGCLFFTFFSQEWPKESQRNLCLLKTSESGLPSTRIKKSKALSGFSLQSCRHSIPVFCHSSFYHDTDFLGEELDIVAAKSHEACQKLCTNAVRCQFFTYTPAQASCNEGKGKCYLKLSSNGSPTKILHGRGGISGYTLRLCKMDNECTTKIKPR

Row | SMILES | Ki (human FXIa; [1]) [µM] | melting point | Ki (human FXIa; [2]) [µM] | 1.5× aPTT (μM) (Rabbit) (rabbit plasma) [µM] | Ki (FXIa) [nM]
1 | CN1CCN(C(=O)Nc2ccc(C[C@H](NC(=O)c3cc(-c4cccc(Cl)c4F)[nH]n3)C(=O)Nc3ccc4[nH]c(C(=O)O)cc4c3)cc2)CC1 [Compound 7zb, (S)-5-(2-(5-(3-Chloro-2-fluorophenyl)-1H-pyrazole-3-carboxamido)-3-(4-(4-methylpiperazine-1-carboxamido)phenyl)propanamido)-1H-indole-2-carboxylic acid] | 1.94 | 203 to 205 °C (dec.) |  |  | 
2 | O=C(O)c1ccc(NC(=O)[C@H](Cc2ccccc2)NC(=O)c2cc(-c3ccccc3F)[nH]n2)cc1 [Compound 7c, (S)-4-(2-(5-(2-Fluorophenyl)-1H-pyrazole-3-carboxamido)-3-phenylpropanamido)benzoic acid] | > 84.5 | 86 to 88 °C (dec.) |  |  | 
3 | O=C(O)c1ccc(NC(=O)[C@H](Cc2ccccc2)NC(=O)c2cc(-c3cc(Cl)ccc3F)[nH]n2)cc1 [Compound 7h, (S)-4-(2-(5-(5-Chloro-2-fluorophenyl)-1H-pyrazole-3-carboxamido)-3-phenylpropanamido)benzoic acid] | > 84.5 | 179 to 181 °C (dec.) |  |  | 
4 | O=C(O)c1ccc(NC(=O)[C@H](Cc2ccccc2)NC(=O)c2cc(-c3cccc(Cl)c3)[nH]n2)cc1 [Compound 7a, (S)-4-(2-(5-(3-Chlorophenyl)-1H-pyrazole-3-carboxamido)-3-phenylpropanamido)benzoic acid] | 46.7 | 147 to 149 °C (dec.) |  |  | 
5 | O=C(O)c1ccc(NC(=O)[C@H](Cc2ccccc2)NC(=O)c2cc(-c3c(F)cccc3F)[nH]n2)cc1 [Compound 7j, (S)-4-(2-(5-(2,6-Difluorophenyl)-1H-pyrazole-3-carboxamido)-3-phenylpropanamido)benzoic acid] | > 84.5 | 205 to 207 °C (dec.) |  |  | 
6 | O=C(N[C@@H](Cc1ccc(N2CCOCC2=O)cc1)C(=O)Nc1ccc2[nH]c(C(=O)O)cc2c1)c1cc(-c2cccc(Cl)c2F)[nH]n1 [Compound 7zc, (S)-5-(2-(5-(3-Chloro-2-fluorophenyl)-1H-pyrazole-3-carboxamido)-3-(4-(3-oxomorpholino)phenyl)-propanamido)-1H-indole-2-carboxylic acid] | 4.82 | 200 to 202 °C (dec.) |  |  | 
7 | O=C(O)c1ccc(NC(=O)[C@H](Cc2ccccc2)NC(=O)c2cc(-c3ccccc3Cl)[nH]n2)cc1 [Compound 7d, (S)-4-(2-(5-(2-Chlorophenyl)-1H-pyrazole-3-carboxamido)-3-phenylpropanamido)benzoic acid] | > 84.5 | 92 to 94 °C (dec.) |  |  | 
8 | Cc1c(C(=O)N[C@@H](Cc2ccccc2)C(=O)Nc2ccc(C(=O)O)cc2)n[nH]c1-c1cccc(Cl)c1 [Compound 7m, (S)-4-(2-(5-(3-Chlorophenyl)-4-methyl-1H-pyrazole-3-carboxamido)-3-phenylpropanamido)benzoic acid] | 37.1 | 164 to 166 °C (dec.) |  |  | 
9 | O=C(O)c1cc2cc(NC(=O)[C@H](Cc3ccc(F)cc3)NC(=O)c3cc(-c4cccc(Cl)c4F)n[nH]3)ccc2[nH]1 [Compound 7s, (S)-5-(2-(3-(3-Chloro-2-fluorophenyl)-1H-pyrazole-5-carboxamido)-3-(4-fluorophenyl)propanamido)-1H-indole-2-carboxylic acid] |  | 186 to 188 °C (dec.) | 0.93 |  | 
10 | NC[C@H]1CC[C@H](C(=O)NC(Cc2ccccc2)c2ncc(-c3ccc4c(N)n[nH]c4c3)[nH]2)CC1 (stereo partly drawn) [Compound 4, reference compound] | 0.0235 |  | 0.0235 | 3.79 | 
11 | Nc1ccc(C[C@H](NC(=O)c2cc(-c3cccc(Cl)c3F)[nH]n2)C(=O)Nc2ccc3[nH]c(C(=O)O)cc3c2)cc1 [Compound 7z, (S)-5-(3-(4-Aminophenyl)-2-(5-(3-chloro-2-fluorophenyl)-1H-pyrazole-3-carboxamido)propanamido)-1H-indole-2-carboxylic acid] | 4.1 | 209 to 211 °C (dec.) |  |  | 
12 | O=C(O)c1ccc(NC(=O)[C@H](Cc2ccccc2)NC(=O)c2cc(-c3c(F)cccc3Cl)[nH]n2)cc1 [Compound 7i, (S)-4-(2-(5-(2-Chloro-6-fluorophenyl)-1H-pyrazole-3-carboxamido)-3-phenylpropanamido)benzoic acid] | > 84.5 | 203 to 205 °C (dec.) |  |  | 
13 | O=C(O)c1cc2cc(NC(=O)[C@H](Cc3ccccc3)NC(=O)c3cc(-c4cccc(Cl)c4F)n[nH]3)ccc2[nH]1 [Compound 7o, (S)-5-(2-(3-(3-Chloro-2-fluorophenyl)-1H-pyrazole-5-carboxamido)-3-phenylpropanamido)-1H-indole-2-carboxylic acid] |  | 172 to 174 °C (dec.) | 1.97 |  | 
14 | COC1CCN(c2cccc3c2CCN(C(=O)c2cc(-c4cccc(Cl)c4)[nH]n2)[C@@H]3C(=O)Nc2ccc(C(=O)O)cc2)CC1 [Compound 2] |  |  |  |  | 18.4
15 | O=C(O)c1ccc(NC(=O)[C@H](Cc2ccccc2)NC(=O)c2cc(-c3ccc(Cl)cc3F)[nH]n2)cc1 [Compound 7g, (S)-4-(2-(5-(4-Chloro-2-fluorophenyl)-1H-pyrazole-3-carboxamido)-3-phenylpropanamido)benzoic acid] | > 84.5 | 143 to 145 °C (dec.) |  |  | 
16 | CC1CC1C(=O)Nc1ccc(C[C@H](NC(=O)c2cc(-c3cccc(Cl)c3F)[nH]n2)C(=O)Nc2ccc3[nH]c(C(=O)O)cc3c2)cc1 (stereo partly drawn) [Compound 7za, 5-((2S)-2-(5-(3-Chloro-2-fluorophenyl)-1H-pyrazole-3-carboxamido)-3-(4-(2-methylcyclopropane-carboxamido)phenyl)propanamido)-1H-indole-2-carboxylic acid] |  |  |  | 43.33 | 
17 | Cc1c(C(=O)N[C@@H](Cc2ccccc2)C(=O)Nc2ccc3[nH]c(C(=O)O)cc3c2)n[nH]c1-c1cccc(Cl)c1 [Compound 7q, (S)-5-(2-(3-(3-Cchlorophenyl)-4-methyl-1H-pyrazole-5-carboxamido)-3-phenylpropanamido)-1H-indole-2-carboxylic acid] | 8.94 | 154 to 156 °C (dec.) |  |  | 
18 | O=C(O)c1cc2cc(NC(=O)[C@H](Cc3cccc(F)c3)NC(=O)c3cc(-c4cccc(Cl)c4F)n[nH]3)ccc2[nH]1 [Compound 7t, (S)-5-(2-(3-(3-Chloro-2-fluorophenyl)-1H-pyrazole-5-carboxamido)-3-(3-fluorophenyl)propanamido)-1H-indole-2-carboxylic acid] |  | 174 to 176 °C (dec.) | 1.66 |  | 
19 | O=C(O)c1ccc(NC(=O)[C@H](Cc2ccccc2)NC(=O)c2cc(-c3ccc(Cl)cc3)[nH]n2)cc1 [Compound 7e, (S)-4-(2-(5-(4-Chlorophenyl)-1H-pyrazole-3-carboxamido)-3-phenylpropanamido)benzoic acid] | > 84.5 | 174 to 176 °C (dec.) |  |  | 
20 | O=C(O)c1ccc(NC(=O)[C@H](Cc2ccccc2)NC(=O)c2cc(-c3ccccc3)[nH]n2)cc1 [Compound 7b, (S)-4-(3-Phenyl-2-(5-phenyl-1H-pyrazole-3-carboxamido)propanamido)benzoic acid] | > 84.5 | 137 to 139 °C (dec.) |  |  | 
